Data as given in article PMC12675387, “Receptor interaction profiles of 4-alkoxy-2,6-dimethoxyphenethylamines (Ψ derivatives) and related amphetamines” (Frontiers in Pharmacology, 2025).

Experiments:
human 5-HT2A receptor = biological target: T1, human 5-HT2A receptor (Homo sapiens, UniProt P28223); assay: Activation potency and efficacy at the 5-HT2A receptor (FLIPR calcium, NIH-3T3 cells); format: cell-based; conditions: for Emax: NIH3T3, relative to 5-HT (100%), read-out: h5-HT2A activation efficacy Emax ± SD
T1 construct: expressed in transfected cells; host or cells: NIH-3T3 mouse embryonic fibroblasts
T1 sequence (P28223 whole entry): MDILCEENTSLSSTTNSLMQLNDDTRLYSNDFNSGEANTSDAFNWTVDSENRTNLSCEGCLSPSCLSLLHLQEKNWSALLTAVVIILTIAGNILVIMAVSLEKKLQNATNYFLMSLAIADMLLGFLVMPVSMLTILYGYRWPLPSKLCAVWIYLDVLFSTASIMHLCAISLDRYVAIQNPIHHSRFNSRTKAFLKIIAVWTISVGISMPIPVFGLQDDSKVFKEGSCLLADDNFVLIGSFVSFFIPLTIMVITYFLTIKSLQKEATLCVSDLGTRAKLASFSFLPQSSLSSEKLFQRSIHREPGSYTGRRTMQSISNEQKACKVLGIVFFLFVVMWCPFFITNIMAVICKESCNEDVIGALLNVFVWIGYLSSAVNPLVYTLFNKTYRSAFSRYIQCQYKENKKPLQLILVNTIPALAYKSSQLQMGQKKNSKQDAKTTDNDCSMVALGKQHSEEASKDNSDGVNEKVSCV
Method: The activation potency and efficacy at the 5-HT2A receptor were determined as previously described by [Luethi et al. (2018)]. In short, mouse embryonic fibroblasts (NIH-3T3 cells) stably transfected with the human 5-HT2A receptor were seeded in poly-D-lysine-coated 96 well plates at a density of 70,000 cells per 100 μL. Next, the cells were incubated in HEPES-Hank’s Balanced Salt Solution (HBSS) buffer (Gibco) for 1 h at 37 °C; the cells were then incubated with 100 μL of dye solution (fluorescence imaging plate reader [FLIPR] calcium 5 assay kit; Molecular Devices, Sunnyvale, CA, United States) per well for 1 h at 37 °C. The plate was then inserted into the FLIPR and 25 μL of the test compounds diluted in HEPES-HBSS buffer containing […] probenecid were added online. Increase of the fluorescence signal was measured and the activation potency (EC50) was calculated from the dose-response curves using nonlinear regression. The activation efficacy was calculated relative to 5-HT activity (defined as 100% activity).

hDAT = hDAT (Homo sapiens, UniProt Q01959); assay: Radioligand binding, DAT ([3H]WIN35,428)
Chain of hDAT (Q01959 whole entry): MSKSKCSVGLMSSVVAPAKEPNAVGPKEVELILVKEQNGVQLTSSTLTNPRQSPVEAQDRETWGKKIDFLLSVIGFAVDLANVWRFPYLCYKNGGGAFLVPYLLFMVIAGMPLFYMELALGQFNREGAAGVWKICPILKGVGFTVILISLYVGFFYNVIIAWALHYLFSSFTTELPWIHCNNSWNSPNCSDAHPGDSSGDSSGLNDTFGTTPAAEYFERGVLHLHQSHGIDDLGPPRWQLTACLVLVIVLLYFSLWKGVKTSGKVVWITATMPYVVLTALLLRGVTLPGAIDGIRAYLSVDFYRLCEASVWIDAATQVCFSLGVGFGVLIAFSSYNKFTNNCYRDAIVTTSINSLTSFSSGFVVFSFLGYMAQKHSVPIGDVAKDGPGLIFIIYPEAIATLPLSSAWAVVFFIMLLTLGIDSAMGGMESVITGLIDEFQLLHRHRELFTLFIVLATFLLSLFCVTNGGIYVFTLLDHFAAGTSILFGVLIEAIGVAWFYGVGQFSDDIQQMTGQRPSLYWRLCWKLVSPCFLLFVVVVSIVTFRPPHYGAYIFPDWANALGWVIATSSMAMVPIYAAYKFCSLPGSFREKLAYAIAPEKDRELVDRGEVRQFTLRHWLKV

hSERT = hSERT (Homo sapiens, UniProt P31645); assay: Radioligand binding, SERT ([3H]citalopram)
Chain of hSERT (P31645 whole entry): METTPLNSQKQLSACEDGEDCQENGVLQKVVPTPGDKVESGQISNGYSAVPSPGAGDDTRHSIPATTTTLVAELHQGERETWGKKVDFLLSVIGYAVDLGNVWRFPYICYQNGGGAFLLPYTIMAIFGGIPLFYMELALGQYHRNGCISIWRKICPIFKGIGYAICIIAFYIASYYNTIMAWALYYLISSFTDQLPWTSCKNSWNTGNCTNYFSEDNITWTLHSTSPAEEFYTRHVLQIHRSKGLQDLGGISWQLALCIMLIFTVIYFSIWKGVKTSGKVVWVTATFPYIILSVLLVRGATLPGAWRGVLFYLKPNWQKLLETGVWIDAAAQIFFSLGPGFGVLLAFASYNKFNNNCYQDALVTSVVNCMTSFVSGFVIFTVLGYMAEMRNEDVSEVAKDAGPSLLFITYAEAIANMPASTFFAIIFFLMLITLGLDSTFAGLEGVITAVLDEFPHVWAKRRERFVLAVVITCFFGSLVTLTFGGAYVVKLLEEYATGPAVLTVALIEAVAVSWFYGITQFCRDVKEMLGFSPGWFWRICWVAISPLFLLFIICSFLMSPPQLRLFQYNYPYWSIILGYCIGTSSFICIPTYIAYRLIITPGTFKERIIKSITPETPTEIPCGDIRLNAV

rTAAR1 = rTAAR1 (Rattus norvegicus, UniProt Q923Y9); assay: Radioligand binding, rat TAAR1 ([3H]RO5166017)
Chain of rTAAR1 (Q923Y9 whole entry): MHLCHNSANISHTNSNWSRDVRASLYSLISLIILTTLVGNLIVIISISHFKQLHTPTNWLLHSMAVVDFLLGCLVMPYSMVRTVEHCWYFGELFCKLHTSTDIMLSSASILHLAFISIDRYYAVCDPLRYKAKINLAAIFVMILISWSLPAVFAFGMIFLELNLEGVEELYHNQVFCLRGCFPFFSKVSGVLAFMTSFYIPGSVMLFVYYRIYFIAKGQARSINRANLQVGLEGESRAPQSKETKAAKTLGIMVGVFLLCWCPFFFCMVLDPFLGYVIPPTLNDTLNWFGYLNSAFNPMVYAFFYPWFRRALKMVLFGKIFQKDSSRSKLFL

mTAAR1 = mTAAR1 (Mus musculus, UniProt Q923Y8); assay: Radioligand binding, mouse TAAR1 ([3H]RO5166017)
Chain of mTAAR1 (Q923Y8 whole entry): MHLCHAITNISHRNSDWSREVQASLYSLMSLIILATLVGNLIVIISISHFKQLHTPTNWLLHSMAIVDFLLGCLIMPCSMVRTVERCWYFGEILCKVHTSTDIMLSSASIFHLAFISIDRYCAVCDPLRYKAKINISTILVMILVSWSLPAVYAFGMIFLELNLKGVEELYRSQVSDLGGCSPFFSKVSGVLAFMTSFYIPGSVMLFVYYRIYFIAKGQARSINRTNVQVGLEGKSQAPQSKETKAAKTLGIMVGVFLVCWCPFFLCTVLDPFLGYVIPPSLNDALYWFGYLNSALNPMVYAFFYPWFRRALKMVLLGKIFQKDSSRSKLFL

hNET = hNET (Homo sapiens, UniProt P23975); assay: Radioligand binding, NET (N-methyl-[3H]nisoxetine)
Chain of hNET (P23975 whole entry): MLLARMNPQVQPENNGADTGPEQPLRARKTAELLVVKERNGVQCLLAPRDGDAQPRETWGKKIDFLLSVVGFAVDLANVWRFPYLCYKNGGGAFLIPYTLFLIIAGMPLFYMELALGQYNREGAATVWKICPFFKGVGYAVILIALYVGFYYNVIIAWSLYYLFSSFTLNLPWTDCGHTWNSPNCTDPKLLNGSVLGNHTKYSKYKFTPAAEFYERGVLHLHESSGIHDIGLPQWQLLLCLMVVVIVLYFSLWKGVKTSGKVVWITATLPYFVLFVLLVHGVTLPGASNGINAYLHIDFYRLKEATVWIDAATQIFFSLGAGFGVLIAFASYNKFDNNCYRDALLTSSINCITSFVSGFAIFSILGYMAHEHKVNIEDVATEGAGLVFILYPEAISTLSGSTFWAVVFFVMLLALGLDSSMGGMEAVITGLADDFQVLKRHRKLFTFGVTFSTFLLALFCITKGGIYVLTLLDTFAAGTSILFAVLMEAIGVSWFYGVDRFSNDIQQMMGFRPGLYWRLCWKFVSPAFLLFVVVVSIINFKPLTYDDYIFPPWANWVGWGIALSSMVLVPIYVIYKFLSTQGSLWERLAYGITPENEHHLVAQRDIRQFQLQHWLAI

h5-HT1A receptor = biological target: T2, h5-HT1A receptor (Homo sapiens, UniProt P08908); assay: Radioligand binding, 5-HT1A receptor ([3H]8-OH-DPAT)
T2 sequence (P08908 1-422): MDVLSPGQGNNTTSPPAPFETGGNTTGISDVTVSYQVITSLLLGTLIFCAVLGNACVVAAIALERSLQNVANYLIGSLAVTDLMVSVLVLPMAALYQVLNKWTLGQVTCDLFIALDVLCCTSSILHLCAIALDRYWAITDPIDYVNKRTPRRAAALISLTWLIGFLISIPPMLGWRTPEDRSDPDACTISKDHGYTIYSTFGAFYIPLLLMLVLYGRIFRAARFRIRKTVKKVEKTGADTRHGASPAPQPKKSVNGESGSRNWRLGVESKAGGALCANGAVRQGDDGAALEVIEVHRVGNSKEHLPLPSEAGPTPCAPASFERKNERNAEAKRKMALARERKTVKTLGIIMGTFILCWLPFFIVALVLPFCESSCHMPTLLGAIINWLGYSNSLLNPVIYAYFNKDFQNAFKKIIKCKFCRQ

h5-HT2A receptor = h5-HT2A receptor (Homo sapiens, UniProt P28223); assay: Radioligand binding, 5-HT2A receptor ([3H]ketanserin); conditions: for Selectivity (binding ratio) 5-HT2A/5-HT1A: preference for 5-HT2A (Ki 5-HT1A divided by Ki 5-HT2A); for Selectivity (binding ratio) 5-HT2A/5-HT2C: preference for 5-HT2A (Ki 5-HT2C divided by Ki 5-HT2A); for fold increase in 5-HT2A affinity over the 4-methoxy analog: pairs Ψ-2C-O-1/Ψ-2C-O-35 and TMA-6/Ψ-DODFMO
Chain of h5-HT2A receptor (P28223 whole entry): as the sequence (P28223 whole entry) above

h5-HT2C receptor = biological target: T3, h5-HT2C receptor (Homo sapiens, UniProt P28335); assay: Radioligand binding, 5-HT2C receptor ([3H]mesulergine)
T3 sequence (P28335 33-458): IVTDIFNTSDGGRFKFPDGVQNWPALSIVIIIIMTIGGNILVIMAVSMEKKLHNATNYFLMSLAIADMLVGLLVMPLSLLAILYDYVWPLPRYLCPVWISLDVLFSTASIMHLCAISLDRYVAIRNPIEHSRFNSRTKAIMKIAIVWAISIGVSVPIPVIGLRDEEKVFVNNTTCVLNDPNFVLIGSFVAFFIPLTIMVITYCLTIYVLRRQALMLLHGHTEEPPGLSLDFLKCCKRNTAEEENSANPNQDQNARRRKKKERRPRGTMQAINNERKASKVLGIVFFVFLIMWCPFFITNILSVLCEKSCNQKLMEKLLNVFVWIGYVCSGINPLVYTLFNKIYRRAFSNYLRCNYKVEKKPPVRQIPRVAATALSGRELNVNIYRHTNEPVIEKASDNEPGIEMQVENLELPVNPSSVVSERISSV

hα1A adrenergic receptor = biological target: T4, hα1A adrenergic receptor (Homo sapiens, UniProt P35348); assay: Radioligand binding, α1A adrenergic receptor ([3H]prazosin); conditions: hα1A Ki ± SD
T4 sequence (P35348 1-466): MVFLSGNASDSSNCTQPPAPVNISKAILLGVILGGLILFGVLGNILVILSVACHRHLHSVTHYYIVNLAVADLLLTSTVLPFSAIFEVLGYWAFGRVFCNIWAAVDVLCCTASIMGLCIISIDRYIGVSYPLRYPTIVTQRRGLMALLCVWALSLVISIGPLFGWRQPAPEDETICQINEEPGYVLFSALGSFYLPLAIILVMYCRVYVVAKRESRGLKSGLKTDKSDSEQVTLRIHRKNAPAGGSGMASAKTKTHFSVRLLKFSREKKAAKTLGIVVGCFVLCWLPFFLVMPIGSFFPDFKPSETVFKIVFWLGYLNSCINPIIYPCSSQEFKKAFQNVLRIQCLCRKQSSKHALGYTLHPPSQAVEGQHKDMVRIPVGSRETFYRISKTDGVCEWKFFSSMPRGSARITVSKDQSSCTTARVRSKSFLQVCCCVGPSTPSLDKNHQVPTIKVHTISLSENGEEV

hD2 receptor = hD2 receptor (Homo sapiens, UniProt P14416); assay: Radioligand binding, dopaminergic D2 receptor ([3H]spiperone)
Chain of hD2 receptor (P14416 whole entry): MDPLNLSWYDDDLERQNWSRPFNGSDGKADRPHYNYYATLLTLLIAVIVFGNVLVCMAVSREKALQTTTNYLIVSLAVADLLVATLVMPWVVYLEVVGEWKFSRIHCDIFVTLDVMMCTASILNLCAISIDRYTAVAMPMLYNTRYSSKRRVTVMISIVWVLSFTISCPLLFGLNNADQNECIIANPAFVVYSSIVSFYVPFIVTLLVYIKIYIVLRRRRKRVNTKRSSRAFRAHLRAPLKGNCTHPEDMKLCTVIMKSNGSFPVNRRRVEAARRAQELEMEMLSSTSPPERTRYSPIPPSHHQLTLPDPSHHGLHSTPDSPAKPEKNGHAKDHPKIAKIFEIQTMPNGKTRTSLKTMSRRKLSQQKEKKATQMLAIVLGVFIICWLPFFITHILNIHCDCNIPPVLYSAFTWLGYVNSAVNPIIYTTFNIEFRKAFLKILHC

Compound | EC50 (human 5-HT2A receptor) [nM] | Emax (human 5-HT2A receptor) [%] | Ki (hDAT; DAT Ki) [nM] | Ki (hDAT; hDAT Ki ± SD, [3H]WIN35,428) [nM] | Ki (hSERT; SERT Ki, no binding observed) [nM] | Ki (hSERT; hSERT Ki ± SD, [3H]citalopram) [nM] | Ki (rTAAR1) [nM] | Ki (mTAAR1) [nM] | Ki (hNET) [nM] | Ki (h5-HT1A receptor) [nM] | Ki (h5-HT2A receptor) [nM] | Selectivity (binding ratio) 5-HT2A/5-HT1A (h5-HT2A receptor) | Selectivity (binding ratio) 5-HT2A/5-HT2C (h5-HT2A receptor) | Ki (h5-HT2C receptor) [nM] | Ki (hα1A adrenergic receptor) [nM] | Ki (hD2 receptor) [nM] | fold increase in 5-HT2A affinity over the 4-methoxy analog (h5-HT2A receptor) | type of agonism at the 5-HT2A receptor (human 5-HT2A receptor) | fold difference in 5-HT2A receptor affinity between Ψ derivative and its 2,4,5-trisubstituted counterpart (h5-HT2A receptor; TMA-6 vs TMA-2, Ψ-2C-O-16 vs 2C-O-16, Ψ-MALM vs MALM: higher affinity of the Ψ derivative)
COc1cc(OCc2ccccc2)cc(OC)c1CCN [Ψ-2C-O-27, 4-benzyloxy-2,6-dimethoxyphenethylamine] | 410 ± 160 | 42 ± 8 | 1300 to 1800 | 1300 | < 7500 | > 7500 | 3.1 ± 0.2 | 610 ± 6 | 6200 | 2100 | 8 ± 1 | 280 | 15 | 110 ± 10 | 3600 | > 6000 |  |  | 
COc1cc(OC(F)F)cc(OC)c1CCN [Ψ-2C-O-35, 4-(2,2-difluoromethoxy)-2,6-dimethoxyphenethylamine] | 260 ± 200 | 16 ± 2 |  | > 8500 |  | > 7500 | 51 ± 4 | 680 ± 120 | > 8800 | 4440 | 72 ± 18 |  | 7.1 | 510 ± 140 | 2100 | > 6000 | 3–4 fold |  | 
COc1cc(OC(F)F)cc(OC)c1CC(C)N (stereo not shown) [Ψ-DODFMO, 4-(2,2-difluoromethoxy)-2,6-dimethoxyamphetamine] | 300 ± 100 | 54 ± 4 |  | > 8500 |  | > 7500 | 140 ± 40 | 860 ± 40 | > 8800 | 5100 | 84 ± 23 | 61 | 21 | 1800 | 5900 | > 6000 | 3–4 fold |  | 
C=CCOc1cc(OC)c(CC(C)N)c(OC)c1 (stereo not shown) [Ψ-MALM, 4-allyloxy-2,6-dimethoxyamphetamine] | 180 ± 70 | 66 ± 6 |  | > 8500 |  | > 7500 | 58 ± 11 | 270 ± 50 | > 8800 | > 5600 | 75 ± 11 | >75 | 10 | 780 ± 330 | 1400 | > 6000 |  | partial agonists | 2–5 fold
COc1cc(OCc2ccccc2)cc(OC)c1CC(C)N (stereo not shown) [Ψ-MBnM, 4-benzyloxy-2,6-dimethoxyamphetamine] | 430 ± 150 | 39 ± 6 | 1300 to 1800 | 1800 | < 7500 | > 7500 | 6.1 ± 0.7 | 190 ± 10 | 7100 | > 5600 | 21 ± 2 |  | 13 | 270 ± 50 | 5800 | > 6000 |  |  | 
COc1cc(OCC(F)F)cc(OC)c1CC(C)N (stereo not shown) [Ψ-MDFEM, 4-(2,2-difluoroethoxy)-2,6-dimethoxyamphetamine] | 1100 | 34 ± 7 |  | 5400 |  | > 7500 | 66 ± 13 | 500 ± 70 | > 8800 | > 5600 | 950 ± 240 | >6 | 10 | 9500 | 3900 | > 6000 |  |  | 
CCOc1cc(OC)c(CC(C)N)c(OC)c1 (stereo not shown) [Ψ-MEM, 2,6-dimethoxy-4-ethoxyamphetamine] | 650 ± 210 | 54 ± 5 |  | > 8500 |  | > 7500 | 110 ± 10 | 400 ± 20 | > 8800 | > 5600 | 490 ± 20 | >11 | 10 | 5100 | 6010 | > 6000 |  |  | 
COc1cc(OCCF)cc(OC)c1CC(C)N (stereo not shown) [Ψ-MFEM, 2,6-dimethoxy-4-(2-fluoroethoxy)amphetamine] | 1300 | 37 ± 2 |  | > 8500 |  | > 7500 | 52 ± 18 | 560 ± 10 | > 8800 | > 5600 | 1400 | >4 | 7.1 | 10000 | 6700 | > 6000 |  |  | 
